Laboratory results published in patent US9320271B2, “Microbial composition” (Rohm and Haas Company, priority 2011, dated 2016).

System: Staphylococcus aureus (10788 strain)
Experiment: 15 second contact kill test / antimicrobial efficacy of actives against S. aureus in water
Assay type: cell-based
Conditions: 0.1% 3 isopropyl 6 methyl catechol (IPMC) alone
Description: Selected materials were also tested against a representative Grant positive Staphylococcus aureus. An overnight culture of Staphylococcus aureus (10788 strain) was inoculated onto a […] Soy Agar (TSA) plate and grown for ca. 18 hrs at 37° C. The culture S. aureus was washed from the plate using sterile saline (0.85% NaCl) solution and a sterile spreader and suspended in 50 ml saline. This suspension was separated into equal volumes and centrifuged at 4000 rpm for 15 minutes. […] Here, OD620 indicates the absorbance of a sample in a cuvette of 1.0 cm path length at a wavelength of 620 nm. This bacterial stock was used for assaying against antimicrobial actives (in triplicate). The following assay describes the testing of 8 materials using 6 dilutions across half of a 96-well micro titre plate (MTP). Using this approach it is possible to assay 16 actives (without replicates) with one full dilution plate, replicating this set up in two halves of the plate columns, 1-6 and 7-12. 1M solutions of the test actives were prepared in dimethylsulphoxide (DMSO). […] Aliquots (270 μl) of the materials at 1.11 times the final concentration were dispensed into the wells of the MTP along one column (A1-H1). This MTP was labelled as the “Screening plate”. In another MTP, labelled as the “Dilution plate”, […] of D/E neutralising solution from DIFCO Composition was added to column 1. The composition of the neutralising solution was as follows: pancreatic digest of casein, 5.0 g/L; […] Dextrose, 10 g/L, sodium thioglycollate, 1.0 g/L, sodium thiosulphate, 6.0 g/L; sodium bisulphite, 2.5 g/L; […] […] From the colony number in this segment, NMBS is calculated by the formula: NMBS=log {Ncol·10^DF·100/3} Here, Ncol is the colony count, and DF is the dilution factor taken from the MTP-well corresponding to the TSA plate segment (i.e. DF may range from 1 for the quench, to 6 for the highest dilution). […] Here, OD620 indicates the absorbance of a sample in a cuvette of 1.0 cm path length at a wavelength, of 620 nm. […]

## Cc1ccc(C(C)C)c(O)c1O [3-isopropyl-6-methylbenzene-1,2-diol]
  S. aureus 6538 Log Reduction: −0.07
